Test results: US6503899B2, “Azepino[4,5-b]pyrano[3,2-e]indoles” (Pharmacia & Upjohn Company, priority 2000, dated 2003)

melting point	Compound
> 217 °C (dec.)	Cl.Cn1c2c(c3c4c(ccc31)OCCC4)CCNCC2
> 258 °C (dec.)	CC1(C)CCc2c(ccc3[nH]c4c(c23)CCNCC4)O1.Cl
